Test results published in US10632179B2, “Methods and compositions for treating cancer” (Case Western Reserve University, priority 2013, dated 2020).

Tested on: heterotopic GBM flank tumor model
Test: Heterotopic xenograft flank tumor treatment with peptide
Type: in vivo, nude mice
Set-up: dose or concentration left out as unconfirmed
Conditions: flank tumors of mice intravenously administered peptide; compared with scrambled control polypeptide; FIG. 2
Experimental: In this Example, we tested the efficacy of the SBK2 peptide in treating primary human brain tumor xenografts. The studies were performed using an imaging dose of the SBK2 peptide probe in 3 sequential injections that were two days apart in a heterotopic GBM flank tumor model.
Human Gli36Δ5 glioblastoma cells constitutively over-express the vIII mutant forms of the EGFR gene (Tyminski E, Leroy S, Terada K, Finkelstein D M, Hyatt J L, Danks M K, Potter P M, Saeki Y, Chiocca E A (2005) Brain tumor oncolysis with replication-conditional herpes simplex virus type 1 expressing the prodrug-activating genes, CYP2B1 and secreted human intestinal carboxylesterase, in combination with cyclophosphamide and irinotecan. Cancer Res 65:6850-6857). Human LN-229 glioblastoma cells were obtained from American Type Culture Collection, Manassas, Va. Gli36Δ5 or LN-229 cells were harvested for flank implantation by trypsinization. […]
On each peptide treatment day, flank tumors were imaged using the Maestro FLEX In Vivo Imaging System. […] Tumors were measured through the skin using calipers; length, width and height of the tumors were recorded on each treatment day. On the day the animals were sacrificed, tumors were measured before removal (through the skin) and after removal.

## GEGDDFNWEQVNTLTKPTSD [SBK2]
  reduction in tumor volume: 50%
  reduction in weight (flank tumor): 35%
